Results taken from PubChem BioAssay (NCI).
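GI50 marks 50% less growth. TGI denotes the concentration required for complete inhibition of growth.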

Assays:
Test in all cases: NCI anticancer screen, dose series, 384-well format
A549 NSCLC = test system: A549 NSCLC
BT-549 breast = test system: BT-549 breast
CAKI-1 renal = test system: CAKI-1 renal
COLO 205 colon = test system: COLO 205 colon
HL-60(TB) leukemia = test system: HL-60(TB) leukemia
HOP-62 NSCLC = test system: HOP-62 NSCLC
HOP-92 NSCLC = test system: HOP-92 NSCLC
HS 578T breast = test system: HS 578T breast
HT29 colon = test system: HT29 colon
KM12 colon = test system: KM12 colon
M14 melanoma = test system: M14 melanoma
MALME-3M melanoma = test system: MALME-3M melanoma
MCF7 breast = test system: MCF7 breast
MDA-MB-231 breast = test system: MDA-MB-231 breast
NCI-H226 lung = test system: NCI-H226 lung
NCI-H23 lung = test system: NCI-H23 lung
NCI-H322M lung = test system: NCI-H322M lung
OVCAR-8 ovarian = test system: OVCAR-8 ovarian
RPMI-8226 leukemia = test system: RPMI-8226 leukemia
RXF 393 renal = test system: RXF 393 renal
SF-268 CNS = test system: SF-268 CNS
SF-295 CNS = test system: SF-295 CNS
SF-539 CNS = test system: SF-539 CNS
SK-MEL-28 melanoma = test system: SK-MEL-28 melanoma
SNB-75 CNS = test system: SNB-75 CNS
SR leukemia = test system: SR leukemia
SW-620 colon = test system: SW-620 colon

In the case of Cc1cc(Nc2ncc(F)c(N[C@H]3[C@@H](C(N)=O)[C@@H]4C=C[C@H]3C4)n2)ccc1N1CCN(C)CC1, the GI50 (A549 NSCLC) is reported as 20.1 nM, the TGI (A549 NSCLC) is reported as 3250 nM and the GI50 (BT-549 breast) is reported as 14.6 nM. The TGI (BT-549 breast) was 51.5 nM, the GI50 (CAKI-1 renal) was under 10 nM and the TGI (CAKI-1 renal) was 1200 nM. The GI50 (COLO 205 colon) was under 10 nM, the TGI (COLO 205 colon) was under 10 nM and the GI50 (HL-60(TB) leukemia) was under 10 nM. It also gave a TGI (HL-60(TB) leukemia) of 1030 nM, a GI50 (HOP-62 NSCLC) of 25 nM and a TGI (HOP-62 NSCLC) of 237 nM. The GI50 (HOP-92 NSCLC) was 15.6 nM, the TGI (HOP-92 NSCLC) was 184 nM and the GI50 (HS 578T breast) was 12.6 nM. For the same compound, the TGI (HS 578T breast) was 95.6 nM, the GI50 (HT29 colon) was 44.4 nM and the TGI (HT29 colon) was 1140 nM. The GI50 (KM12 colon) was 173 nM, the TGI (KM12 colon) was 1500 nM and the GI50 (M14 melanoma) was under 10 nM. It also gave a TGI (M14 melanoma) of 2100 nM, a GI50 (MALME-3M melanoma) of under 10 nM and a TGI (MALME-3M melanoma) of 1340 nM. It also gave a GI50 (MCF7 breast) of 436 nM, a TGI (MCF7 breast) of 2140 nM and a GI50 (MDA-MB-231 breast) of 26 nM. It also gave a TGI (MDA-MB-231 breast) of 1570 nM, a GI50 (NCI-H226 lung) of 25.7 nM and a TGI (NCI-H226 lung) of 661 nM. It also gave a GI50 (NCI-H23 lung) of 35.9 nM, a TGI (NCI-H23 lung) of 1160 nM and a GI50 (NCI-H322M lung) of 766 nM. It also gave a TGI (NCI-H322M lung) of 2260 nM, a GI50 (OVCAR-8 ovarian) of 88 nM and a TGI (OVCAR-8 ovarian) of 385 nM. For the same compound, the GI50 (RPMI-8226 leukemia) was under 10 nM, the TGI (RPMI-8226 leukemia) was under 10 nM and the GI50 (RXF 393 renal) was 30.5 nM. For the same compound, the TGI (RXF 393 renal) was 294 nM, the GI50 (SF-268 CNS) was 73.5 nM and the TGI (SF-268 CNS) was 866 nM. It also gave a GI50 (SF-295 CNS) of 21.8 nM, a TGI (SF-295 CNS) of 276 nM and a GI50 (SF-539 CNS) of 24.8 nM. For the same compound, the TGI (SF-539 CNS) was 138 nM, the GI50 (SK-MEL-28 melanoma) was 1210 nM and the TGI (SK-MEL-28 melanoma) was 2550 nM. The GI50 (SNB-75 CNS) was 15.2 nM, the TGI (SNB-75 CNS) was 119 nM and the GI50 (SR leukemia) was under 10 nM. It also gave a TGI (SR leukemia) of under 10 nM, a GI50 (SW-620 colon) of 26.2 nM and a TGI (SW-620 colon) of 1500 nM.
